Results reported in patent US20150031668A1, “CHROMAN DERIVATIVES AS TRPM8 INHIBITORS” (AMGEN INC., priority 2013, published 2015).
pIC50: −log10 of the molar value. Structures can show the parent of a compound that is named as a salt.

Target: T1, human TRPM8 (Homo sapiens, UniProt Q7Z2W7)
T1 construct: expressed in transfected cells; host or cells: Chinese hamster ovary (CHO) cells, T-REx tetracycline-inducible expression system (Invitrogen); co-transfected with pcDNA3.1 aequorin
Test: Luminescence readout assay for measuring intracellular calcium (aequorin, CHO cells expressing human TRPM8; icilin, L-menthol or cold activation)
Assay type: cell-based
Settings: CHO cells expressing human TRPM8, icilin activation (1 μM), aequorin luminescence; read-out: hTRPM8 IC50
How it was run: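 Activation was by 1 μM icilin, 100 μM L-menthol (test compound 2.5 min ahead) or cold buffer below 10° C (compound 1 min ahead). Calcium rise measured as aequorin luminescence in CHO cells with tetracycline-inducible human TRPM8.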

T1 sequence (Q7Z2W7 whole entry): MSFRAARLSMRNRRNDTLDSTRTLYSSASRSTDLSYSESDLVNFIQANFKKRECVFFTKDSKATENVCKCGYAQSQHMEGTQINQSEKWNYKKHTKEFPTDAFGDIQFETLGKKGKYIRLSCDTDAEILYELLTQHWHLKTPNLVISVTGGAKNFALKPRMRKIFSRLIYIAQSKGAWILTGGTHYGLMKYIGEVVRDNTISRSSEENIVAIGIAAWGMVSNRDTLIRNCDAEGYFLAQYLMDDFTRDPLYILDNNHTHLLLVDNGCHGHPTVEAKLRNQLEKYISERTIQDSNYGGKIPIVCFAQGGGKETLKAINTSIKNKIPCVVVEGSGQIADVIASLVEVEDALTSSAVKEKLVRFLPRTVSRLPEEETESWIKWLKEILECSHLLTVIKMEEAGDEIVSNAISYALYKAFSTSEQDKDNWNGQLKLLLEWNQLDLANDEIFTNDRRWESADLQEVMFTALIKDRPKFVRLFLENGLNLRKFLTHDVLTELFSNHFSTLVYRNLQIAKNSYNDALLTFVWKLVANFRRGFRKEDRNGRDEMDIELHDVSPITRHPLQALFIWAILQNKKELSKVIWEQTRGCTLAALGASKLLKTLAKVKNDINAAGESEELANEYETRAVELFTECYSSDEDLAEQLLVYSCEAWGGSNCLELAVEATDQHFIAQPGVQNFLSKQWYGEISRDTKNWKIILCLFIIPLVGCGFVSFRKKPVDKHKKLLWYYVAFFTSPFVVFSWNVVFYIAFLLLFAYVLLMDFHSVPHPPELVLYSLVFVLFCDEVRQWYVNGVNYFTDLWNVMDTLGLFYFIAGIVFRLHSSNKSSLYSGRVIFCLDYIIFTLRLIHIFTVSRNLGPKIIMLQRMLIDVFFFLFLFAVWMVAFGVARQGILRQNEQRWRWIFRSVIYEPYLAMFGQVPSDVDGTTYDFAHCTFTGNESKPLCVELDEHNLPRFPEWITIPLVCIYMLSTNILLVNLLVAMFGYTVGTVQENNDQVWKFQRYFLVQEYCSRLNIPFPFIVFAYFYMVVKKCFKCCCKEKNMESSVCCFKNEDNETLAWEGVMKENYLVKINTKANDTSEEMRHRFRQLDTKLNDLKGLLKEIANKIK

| SMILES | pIC50 |
| --- | --- |
| CC1(C)COC(c2ccc(C(=O)N[C@]3(c4ccc(OC(F)(F)F)c(F)c4)CCOc4cccnc43)cc2)=N1 [Example 168, (S)-4-(4,4-dimethyl-4,5-dihydrooxazol-2-yl)-N-(4-(3-fluoro-4-(trifluoromethoxy)phenyl)-3,4-dihydro-2H-pyrano[3,2-b]pyridin-4-yl)benzamide] | 6.84 |
| Cc1cc(C(=O)N[C@]2(c3ccc(OC(F)(F)F)c(F)c3)CCOc3cccnc32)ccc1C(=O)NC(C)(C)C [Example 297, (S)—N1-(tert-butyl)-N4-(4-(3-fluoro-4-(trifluoromethoxy)phenyl)-3,4-dihydro-2H-pyrano[3,2-b]pyridin-4-yl)-2-methylterephthalamide] | 7.59 |
| Cn1c(C(=O)O)cc2ccc(C(=O)N[C@]3(c4ccc(OC(F)(F)F)c(F)c4)CCOc4cccnc43)cc21 [Example 322, (S)-6-((4-(3-fluoro-4-(trifluoro-methoxy)phenyl)-3,4-dihydro-2H-pyrano[3,2-b]pyridin-4-yl)carbamoyl)-1-methyl-1H-indole-2-carboxylic acid] | 8.05 |
| O=C(NS(=O)(=O)c1ccccc1)c1ccc(C(=O)N[C@]2(c3ccc(OC(F)(F)F)c(F)c3)CCOc3cccnc32)nc1 [Example 307, (S)—N2-(4-(3-fluoro-4-(trifluoromethoxy)phenyl)-3,4-dihydro-2H-pyrano[3,2-b]pyridin-4-yl)-N5-(phenylsulfonyl)pyridine-2,5-dicarboxamide 2,2,2-trifluoroacetate] | 6.20 |
| O=C(N[C@]1(c2ccc(OC(F)(F)F)c(F)c2)CCOc2cccnc21)c1ccc(-c2nn[nH]n2)cn1 [Example 281, (S)—N-(4-(3-fluoro-4-(trifluoromethoxy)phenyl)-3,4-dihydro-2H-pyrano[3,2-b]pyridin-4-yl)-5-(2H-tetrazol-5-yl)picolinamide] | 7.29 |
| O=C(N[C@]1(c2ccc(-c3ccc(F)c(CO)c3)cc2)CCOc2cccnc21)c1ccc(F)cc1 [Example 122, (S)-4-fluoro-N-(4-(4′-fluoro-3′-(hydroxymethyl)-[1,1-biphenyl]-4-yl)-3,4-dihydro-2H-pyrano[3,2-b]pyridin-4-yl)benzamide] | 5.82 |
| COC(=O)c1ccc(C(=O)N[C@]2(c3ccc(OC(F)(F)F)c(F)c3)CCOc3cccnc32)cc1NC(C)=O [Example 295, (S)-methyl 2-acetamido-4-((4-(3-fluoro-4-(trifluoromethoxy)phenyl)-3,4-dihydro-2H-pyrano[3,2-b]pyridin-4-yl)carbamoyl)benzoate] | 7.82 |
| O=C(N[C@]1(c2ccc(OC(F)(F)F)c(F)c2)CCOc2cccnc21)c1ccc(C(=O)O)c(-c2ccccc2)c1 [Example 290, (S)-5-((4-(3-fluoro-4-(trifluoromethoxy)phenyl)-3,4-dihydro-2H-pyrano[3,2-b]pyridin-4-yl)carbamoyl)-[1,1′-biphenyl]-2-carboxylic acid] | 7.07 |
| CN(C)C(=O)c1ccc(-c2ccc([C@@]3(NC(=O)c4ccc(F)cc4)CCOc4cccnc43)cc2)cc1 [Example 137, (S)-4′-(4-(4-fluorobcnzamido)-3,4-dihydro-2H-pyrano[3,2-b]pyridin-4-yl)-N,N-dimethyl-[1,1′-biphenyl]-4-carboxamide] | 5.82 |
| COC(=O)c1ccc(C(=O)NC2(c3ccc(OC(F)(F)F)c(F)c3)CCOc3cccnc32)nc1 (stereo not shown) [Example 30, methyl 6-((4-(3-fluoro-4-(trifluoromethoxy)phenyl)-3,4-dihydro-2H-pyrano[3,2-b]pyridin-4-yl)carbamoyl)nicotinate] | 7.72 |
| CS(=O)(=O)c1ccc(-c2ccc([C@@]3(NC(=O)c4ccc(F)cc4)CCOc4cccnc43)cc2)cc1 [Example 119, (S)-4-fluoro-N-(4-(4′-(methylsulfonyl)-[1,1′-biphenyl]-4-yl)-3,4-dihydro-2H-pyrano[3,2-b]pyridin-4-yl)benzamide] | 6.06 |

Further lines, results first:

| pIC50 | SMILES |
| --- | --- |
| 7.96 | O=C(N[C@]1(c2ccc(OC(F)(F)F)c(F)c2)CCOc2cccnc21)c1ccco1 [Example 308, (S)—N-(4-(3-fluoro-4-(trifluoromethoxy)phenyl)-3,4-dihydro-2H-pyrano[3,2-b]pyridin-4-yl)furan-2-carboxamide] |
| 7.03 | O=C(Nc1ccccn1)N[C@]1(c2ccc(OC(F)(F)F)c(F)c2)CCOc2cccnc21 [Example 95, (S)-1-(4-(3-fluoro-4-(trifluoromethoxy)phenyl)-3,4-dihydro-2H-pyrano[3,2-b]pyridin-4-yl)-3-(pyridin-2-yl)urea] |
| 6.57 | O=C(N[C@]1(c2ccc(OC(F)(F)F)cc2)CCOc2cccnc21)c1cc2cccnc2[nH]1 [Example 216, (S)-N-(4-(4-(trifluoromethoxy)phenyl)-3,4-dihydro-2H-pyrano[3,2-b]pyridin-4-yl)-1H-pyrrolo[2,3-b] pyridine-2-carboxamide formate] |
| 6.55 | O=C(N[C@]1(c2ccc(-c3ccncc3)cc2)CCOc2cccnc21)c1ccc(F)cc1 [Example 116, (S)-4-fluoro-N-(4-(4-(pyridin-4-yl)phenyl)-3,4-dihydro-2H-pyrano[3,2-b]pyridin-4-yl)benzamide] |
| 7.43 | O=C(N[C@]1(c2ccc(OC(F)(F)F)cc2)CCOc2cccnc21)c1cc2ccccc2s1 [Example 267, (S)-N-(4-(4-(trifluoromethoxy)phenyl)-3,4-dihydro-2H-pyrano[3,2-b]pyridin-4-yl) benzo[b]thiophene-2-carboxamide formate] |
| 7.49 | Cn1c(C(=O)N[C@]2(c3ccc(OC(F)(F)F)cc3)CCOc3cccnc32)nc2ccccc21 [Example 260, (S)-1-methyl-N-(4-(4-(trifluoromethoxy)phenyl)-3,4-dihydro-2H-pyrano[3,2-b]pyridin-4-yl)-1H-benzo[d]imidazole-2-carboxamide formate] |
| 7.62 | O=C(N[C@]1(c2ccc(OC(F)(F)F)cc2)CCOc2cccnc21)c1cnc2ccccc2c1 [Example 252, (S)-N-(4-(4-(trifluoromethoxy)phenyl)-3,4-dihydro-2H-pyrano[3,2-b]pyridin-4-yl)quinoline-3-carboxamide formate] |
| 7.06 | O=C(N[C@]1(c2ccc(C(F)(F)F)cc2)CCOc2cccnc21)c1ccns1 [Example 41, (S)-N-(4-(4-(trifluoromethyl)phenyl)-3,4-dihydro-2H-pyrano[3,2-b]pyridin-4-yl)isothiazole-5-carboxamide] |
| 6.65 | O=C(N[C@]1(c2ccc(OC(F)(F)F)cc2)CCOc2cccnc21)c1cncs1 [Example 233, (S)-N-(4-(4-(trifluoromethoxy)phenyl)-3,4-dihydro-2H-pyrano[3,2-b]pyridin-4-yl)thiazole-5-carboxamide formate] |
| 7.85 | O=C(NC1(c2ccc(OC(F)(F)F)cc2)CCOc2cccnc21)c1ccc2[nH]c(=O)oc2c1 (stereo not shown) [Example 22, 2-oxo-N-(4-(4-(trifluoromethoxy)phenyl)-3,4-dihydro-2H-pyrano[3,2-b]pyridin-4-yl)-2,3-dihydrobenzo[d]oxazole-6-carboxamide] |
| 7.89 | O=C(N[C@]1(c2ccc(OC(F)(F)F)c(F)c2)CCOc2cccnc21)c1ccc(Br)cn1 [Example 206, (S)-5-bromo-N-(4-(3-fluoro-4-(trifluoromethoxy)phenyl)-3,4-dihydro-2H-pyrano[3,2-b]pyridin-4-yl) picolinamide] |
